How the values were obtained:
[1] = target: Cyclin-dependent kinase 5/CDK5 activator 1 (Homo sapiens, UniProt Q00535); test: Inhibition of CDK5/p35 (unknown origin) using ULingt-4E-BP as substrate after 1 hr in presence of ATP by fluorescence assay; format: protein-complex assay
[2] = target: CDK2/Cyclin A2 (Homo sapiens, UniProt P24941); test: Inhibition of CDK2/CyclinA (unknown origin) using ULingt-4E-BP as substrate after 1 hr in presence of ATP by fluorescence assay; format: protein-complex assay
[3] = target: CDK2/Cyclin A2 (Homo sapiens) (UniProt P24941+P20248); test: Inhibition of CDK2/CyclinA (unknown origin) using ULingt-4E-BP as substrate at 25 nM after 1 hr in presence of ATP by fluorescence assay relative to control; format: protein-complex assay
[4] = target: Cyclin-dependent kinase 5/CDK5 activator 1 (Homo sapiens) (UniProt Q00535+Q15078); test: Inhibition of CDK5/p35 (unknown origin) using ULingt-4E-BP as substrate at 25 nM after 1 hr in presence of ATP by fluorescence assay relative to control; format: protein-complex assay
Chain of Cyclin-dependent kinase 5/CDK5 activator 1 (Homo sapiens) (Q00535 whole entry): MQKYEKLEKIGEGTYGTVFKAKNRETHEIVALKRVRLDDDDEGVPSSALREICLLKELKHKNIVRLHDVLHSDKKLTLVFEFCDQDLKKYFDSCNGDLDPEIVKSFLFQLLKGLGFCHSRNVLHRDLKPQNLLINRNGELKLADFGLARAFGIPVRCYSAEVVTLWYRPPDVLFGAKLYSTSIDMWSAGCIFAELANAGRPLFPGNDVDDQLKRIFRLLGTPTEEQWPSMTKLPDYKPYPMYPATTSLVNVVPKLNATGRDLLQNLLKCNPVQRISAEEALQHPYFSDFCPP
Chain of Cyclin-dependent kinase 5/CDK5 activator 1 (Homo sapiens) (Q15078 99-307 partner limits assumed): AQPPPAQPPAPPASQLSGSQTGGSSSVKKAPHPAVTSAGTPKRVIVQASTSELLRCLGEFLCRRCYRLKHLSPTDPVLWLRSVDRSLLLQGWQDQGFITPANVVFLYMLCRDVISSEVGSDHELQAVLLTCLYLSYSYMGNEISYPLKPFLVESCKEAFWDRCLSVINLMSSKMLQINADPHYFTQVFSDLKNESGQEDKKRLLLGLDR

[5] = system: MCF7; test: Growth inhibition of human MCF7 cells after 72 hrs by SRB assay; format: functional
[6] = target: Cyclin-dependent kinase 1/cyclin B1 (Homo sapiens, UniProt P06493); test: Inhibition of human CDK1/CyclinB; format: protein-complex assay
Chain of Cyclin-dependent kinase 1/cyclin B1 (P06493 whole entry): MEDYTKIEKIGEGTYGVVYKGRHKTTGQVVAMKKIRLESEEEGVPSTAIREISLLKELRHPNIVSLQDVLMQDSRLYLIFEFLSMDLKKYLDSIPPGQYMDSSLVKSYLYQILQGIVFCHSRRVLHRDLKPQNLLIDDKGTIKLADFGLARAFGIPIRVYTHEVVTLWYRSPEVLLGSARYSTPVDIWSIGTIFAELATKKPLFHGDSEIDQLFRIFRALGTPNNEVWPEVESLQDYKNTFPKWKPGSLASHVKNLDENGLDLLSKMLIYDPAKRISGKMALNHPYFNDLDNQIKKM
Chain of Cyclin-dependent kinase 1/cyclin B1 (P14635 whole entry, further chain): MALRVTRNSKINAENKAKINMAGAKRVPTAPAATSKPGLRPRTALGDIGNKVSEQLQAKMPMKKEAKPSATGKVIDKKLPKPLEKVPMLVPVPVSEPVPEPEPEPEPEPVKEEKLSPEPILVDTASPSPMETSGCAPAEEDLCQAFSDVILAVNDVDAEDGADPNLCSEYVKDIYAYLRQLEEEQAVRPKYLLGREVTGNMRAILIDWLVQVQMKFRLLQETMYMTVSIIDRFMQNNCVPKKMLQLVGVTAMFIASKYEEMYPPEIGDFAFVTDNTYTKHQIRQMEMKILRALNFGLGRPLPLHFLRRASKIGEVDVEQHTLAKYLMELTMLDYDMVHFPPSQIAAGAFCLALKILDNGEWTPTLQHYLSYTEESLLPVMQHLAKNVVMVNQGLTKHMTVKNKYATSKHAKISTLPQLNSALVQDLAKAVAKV

[7] = target: CDK7/Cyclin H/MNAT1 (Homo sapiens, UniProt P50613); test: Inhibition of human CDK7/CyclinH/MAT1; format: protein-complex assay
Chain of CDK7/Cyclin H/MNAT1 (P51946 whole entry): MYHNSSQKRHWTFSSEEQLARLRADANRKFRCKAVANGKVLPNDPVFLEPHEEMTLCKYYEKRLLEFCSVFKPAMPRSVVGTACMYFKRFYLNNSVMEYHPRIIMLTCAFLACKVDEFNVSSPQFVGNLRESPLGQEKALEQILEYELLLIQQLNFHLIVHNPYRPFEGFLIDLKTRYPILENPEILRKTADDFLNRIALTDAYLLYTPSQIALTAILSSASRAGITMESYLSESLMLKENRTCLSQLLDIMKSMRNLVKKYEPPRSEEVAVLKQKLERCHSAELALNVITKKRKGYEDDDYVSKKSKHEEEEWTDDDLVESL
Chain of CDK7/Cyclin H/MNAT1 (P50613 whole entry): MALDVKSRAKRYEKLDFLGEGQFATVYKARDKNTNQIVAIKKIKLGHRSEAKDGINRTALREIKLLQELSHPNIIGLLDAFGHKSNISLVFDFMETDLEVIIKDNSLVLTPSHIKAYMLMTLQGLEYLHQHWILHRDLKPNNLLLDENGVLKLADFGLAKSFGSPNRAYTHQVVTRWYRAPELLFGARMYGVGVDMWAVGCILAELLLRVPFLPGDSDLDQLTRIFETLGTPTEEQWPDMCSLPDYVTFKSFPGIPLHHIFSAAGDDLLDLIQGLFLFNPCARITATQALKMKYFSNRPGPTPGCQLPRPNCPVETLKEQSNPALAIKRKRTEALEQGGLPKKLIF
Chain of CDK7/Cyclin H/MNAT1 (P51948 whole entry, further chain): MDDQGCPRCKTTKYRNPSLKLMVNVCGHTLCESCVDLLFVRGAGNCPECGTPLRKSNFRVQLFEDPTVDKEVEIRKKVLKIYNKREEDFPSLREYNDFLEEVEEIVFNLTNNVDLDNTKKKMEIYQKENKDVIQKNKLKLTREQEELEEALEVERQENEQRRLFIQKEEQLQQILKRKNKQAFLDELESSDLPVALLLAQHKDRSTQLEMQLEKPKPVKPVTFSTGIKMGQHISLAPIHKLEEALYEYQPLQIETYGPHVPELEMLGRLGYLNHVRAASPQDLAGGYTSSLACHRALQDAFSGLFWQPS

[8] = target: CDK4/Cyclin D3 (Homo sapiens, UniProt P11802); test: Inhibition of human CDK4/CyclinD3; format: protein-complex assay
Chain of CDK4/Cyclin D3 (P11802 whole entry): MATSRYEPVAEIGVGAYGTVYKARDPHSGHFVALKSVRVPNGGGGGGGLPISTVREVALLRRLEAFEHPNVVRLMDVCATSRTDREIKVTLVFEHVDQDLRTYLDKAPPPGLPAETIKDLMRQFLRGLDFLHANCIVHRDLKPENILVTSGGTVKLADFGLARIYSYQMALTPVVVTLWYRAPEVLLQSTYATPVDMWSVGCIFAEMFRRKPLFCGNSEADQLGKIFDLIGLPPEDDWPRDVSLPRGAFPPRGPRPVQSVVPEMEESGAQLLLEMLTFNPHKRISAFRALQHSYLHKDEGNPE
Chain of CDK4/Cyclin D3 (P30281 whole entry, further chain): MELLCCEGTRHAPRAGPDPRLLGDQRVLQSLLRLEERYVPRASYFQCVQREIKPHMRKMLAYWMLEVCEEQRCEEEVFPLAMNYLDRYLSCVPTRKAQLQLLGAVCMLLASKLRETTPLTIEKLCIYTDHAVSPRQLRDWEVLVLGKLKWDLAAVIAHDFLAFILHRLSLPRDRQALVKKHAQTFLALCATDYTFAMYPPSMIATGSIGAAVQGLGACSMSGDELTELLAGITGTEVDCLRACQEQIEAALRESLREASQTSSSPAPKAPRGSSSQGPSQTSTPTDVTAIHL

[9] = system: HCT-116; test: Growth inhibition of human HCT116 cells after 72 hrs by SRB assay; format: functional
[10] = target: CDK6/cyclin D3 (Homo sapiens, UniProt Q00534); test: Inhibition of human CDK6/CyclinD3; format: protein-complex assay
Chain of CDK6/cyclin D3 (P30281 whole entry): as the sequence (P30281 whole entry, further chain) above
Chain of CDK6/cyclin D3 (Q00534 whole entry): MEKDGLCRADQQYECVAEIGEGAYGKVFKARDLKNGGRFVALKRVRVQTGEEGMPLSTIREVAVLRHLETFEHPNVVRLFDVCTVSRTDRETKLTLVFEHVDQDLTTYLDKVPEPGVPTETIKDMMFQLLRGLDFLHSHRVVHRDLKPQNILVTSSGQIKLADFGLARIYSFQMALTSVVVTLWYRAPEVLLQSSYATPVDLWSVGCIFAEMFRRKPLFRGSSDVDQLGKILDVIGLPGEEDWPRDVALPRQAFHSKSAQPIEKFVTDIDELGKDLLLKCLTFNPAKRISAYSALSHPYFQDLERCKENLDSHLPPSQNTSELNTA

[11] = target: CDK9/cyclin T1 (Homo sapiens, UniProt P50750); test: Inhibition of human CDK9/CyclinT1; format: protein-complex assay
Chain of CDK9/cyclin T1 (O60563 whole entry): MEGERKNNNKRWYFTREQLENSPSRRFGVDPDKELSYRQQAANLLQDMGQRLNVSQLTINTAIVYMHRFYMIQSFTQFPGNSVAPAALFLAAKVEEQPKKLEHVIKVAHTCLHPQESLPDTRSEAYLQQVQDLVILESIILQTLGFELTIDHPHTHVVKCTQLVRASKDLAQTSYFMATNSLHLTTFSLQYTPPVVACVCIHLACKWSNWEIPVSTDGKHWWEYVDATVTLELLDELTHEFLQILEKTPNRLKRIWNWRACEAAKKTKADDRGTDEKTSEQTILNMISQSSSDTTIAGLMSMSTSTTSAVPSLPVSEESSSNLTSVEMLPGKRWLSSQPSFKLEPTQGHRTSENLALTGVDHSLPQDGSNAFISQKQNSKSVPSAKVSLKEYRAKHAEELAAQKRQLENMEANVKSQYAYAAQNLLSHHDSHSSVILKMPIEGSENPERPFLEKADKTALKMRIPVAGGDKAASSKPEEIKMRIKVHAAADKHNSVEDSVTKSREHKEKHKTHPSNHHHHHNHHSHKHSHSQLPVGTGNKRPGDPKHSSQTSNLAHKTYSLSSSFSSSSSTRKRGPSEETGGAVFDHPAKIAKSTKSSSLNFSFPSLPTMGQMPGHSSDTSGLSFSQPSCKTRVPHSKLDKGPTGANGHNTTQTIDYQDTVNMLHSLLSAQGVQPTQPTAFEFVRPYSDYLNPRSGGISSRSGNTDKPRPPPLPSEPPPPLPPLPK
Chain of CDK9/cyclin T1 (P50750 whole entry): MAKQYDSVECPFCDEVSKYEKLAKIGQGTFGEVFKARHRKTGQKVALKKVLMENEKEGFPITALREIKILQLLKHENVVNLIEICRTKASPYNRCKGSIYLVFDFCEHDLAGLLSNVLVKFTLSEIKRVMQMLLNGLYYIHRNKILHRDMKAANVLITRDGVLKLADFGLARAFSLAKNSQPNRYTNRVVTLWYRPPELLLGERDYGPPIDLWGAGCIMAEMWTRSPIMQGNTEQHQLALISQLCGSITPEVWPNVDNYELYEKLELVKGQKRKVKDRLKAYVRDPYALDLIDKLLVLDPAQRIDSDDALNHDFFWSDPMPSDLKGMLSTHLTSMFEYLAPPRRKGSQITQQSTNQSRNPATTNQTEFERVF

Chain of Cyclin-dependent kinase 5/CDK5 activator 1 (Q00535 whole entry): as the sequence (Q00535 whole entry) above
Chain of Cyclin-dependent kinase 5/CDK5 activator 1 (Q15078 whole entry, further chain): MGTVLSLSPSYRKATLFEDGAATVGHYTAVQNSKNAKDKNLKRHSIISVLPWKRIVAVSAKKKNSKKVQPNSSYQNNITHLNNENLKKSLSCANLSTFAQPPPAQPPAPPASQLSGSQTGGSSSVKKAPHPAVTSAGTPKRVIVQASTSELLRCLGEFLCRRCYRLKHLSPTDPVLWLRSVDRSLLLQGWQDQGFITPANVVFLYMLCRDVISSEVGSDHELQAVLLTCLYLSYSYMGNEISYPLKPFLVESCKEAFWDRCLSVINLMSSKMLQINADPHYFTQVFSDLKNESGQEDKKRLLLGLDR

| SMILES | IC50 [1] | IC50 [2] | inhibition [3] | inhibition [4] | other results |
| --- | --- | --- | --- | --- | --- |
| Cc1cccc(C(=O)N[C@H]2C[C@@H](n3cnc4c(NC5CCN(C(=O)OC(C)(C)C)CC5)ncnc43)C2)n1 | 66 nM | 95 nM | – | – | – |
| Cc1cccc(C(=O)N[C@H]2C[C@@H](n3cnc4c(N[C@H]5CC[C@H](O)CC5)ncnc43)C2)n1 | > 500 nM | – | – | – | – |
| O=C(N[C@H]1C[C@@H](n2cnc3c(NCc4cccnc4)ncnc32)C1)c1c(F)cccc1F | – | – | 78% | 57% | – |
| COc1cc(Cl)ccc1C(=O)N[C@H]1C[C@@H](n2cnc3c(NCc4cccnc4)ncnc32)C1 | – | – | < 50% | < 50% | – |
| O=C(N[C@H]1C[C@@H](n2cnc3c(NCc4cccnc4)ncnc32)C1)c1ccncc1 | – | – | < 50% | < 50% | – |
| CN1CCCC1C(=O)N[C@H]1C[C@@H](n2cnc3c(NCc4cccnc4)ncnc32)C1 (some centres undefined) | – | – | < 50% | < 50% | – |
| Cc1cccc(C(=O)N[C@H]2C[C@@H](n3cnc4c(NC5CCN(S(C)(=O)=O)CC5)ncnc43)C2)n1 | – | – | 62% | 48% | – |
| O=C(N[C@H]1C[C@@H](n2cnc3c(NCc4cccnc4)ncnc32)C1)c1cccnc1 | – | – | < 50% | < 50% | – |
| O=C(N[C@H]1C[C@@H](n2cnc3c(NCc4cccnc4)ncnc32)C1)C1CCOCC1 | – | – | < 50% | < 50% | – |
| CS(=O)(=O)N1CCC(C(=O)N[C@H]2C[C@@H](n3cnc4c(NCc5cccnc5)ncnc43)C2)CC1 | – | – | 62% | 48% | – |
| O=C(N[C@H]1C[C@@H](n2cnc3c(NCc4cccnc4)ncnc32)C1)c1ccccc1 | – | – | < 50% | < 50% | – |
| CC(=O)N1CCC(Nc2ncnc3c2ncn3[C@H]2C[C@@H](NC(=O)c3cccc(C)n3)C2)CC1 | 179 nM | 474 nM | – | – | – |
| O=C(N[C@H]1C[C@@H](n2cnc3c(NCc4cccnc4)ncnc32)C1)c1cccc(Cl)c1Cl | – | – | < 50% | < 50% | – |
| O=C(N[C@H]1C[C@@H](n2cnc3c(NCc4cccnc4)ncnc32)C1)c1cccc(-c2ccccc2)n1 | 31 nM | 38 nM | – | – | – |
| Cc1ccc(C(=O)N[C@H]2C[C@@H](n3cnc4c(NCc5cccnc5)ncnc43)C2)cc1C | – | – | < 50% | < 50% | – |
| O=C(CC1CCCCC1)N[C@H]1C[C@@H](n2cnc3c(NCc4cccnc4)ncnc32)C1 | – | – | < 50% | < 50% | – |
| CC(=O)N[C@H]1CC[C@H](Nc2ncnc3c2ncn3[C@H]2C[C@@H](NC(=O)c3cccc(C)n3)C2)CC1 | 30 nM | 160 nM | – | – | – |
| O=C(N[C@H]1C[C@@H](n2cnc3c(NCc4cccnc4)ncnc32)C1)c1c(Cl)cccc1Cl | – | – | 82% | 64% | – |
| CN(C)c1cccc(C(=O)N[C@H]2C[C@@H](n3cnc4c(NCc5cccnc5)ncnc43)C2)c1 | – | – | < 50% | < 50% | – |
| CC(=O)N[C@H]1CC[C@@H](Nc2ncnc3c2ncn3[C@H]2C[C@@H](NC(=O)c3cccc(C)n3)C2)CC1 | 27 nM | 112 nM | – | – | – |
| Cc1cccc(C(=O)N[C@H]2C[C@@H](n3cnc4c(NC5CCN(C(=O)OC(C)(C)C)C5)ncnc43)C2)n1 (some centres undefined) | > 500 nM | – | – | – | – |
| O=C(N[C@H]1C[C@@H](n2cnc3c(NCc4cccnc4)ncnc32)C1)c1cccc(C(F)(F)F)n1 | 23 nM | 14 nM | – | – | – |
| Cc1cccc(C(=O)N[C@H]2C[C@@H](n3cnc4c(NCC5CCN(C(=O)OC(C)(C)C)CC5)ncnc43)C2)n1 | 90 nM | 376 nM | – | – | – |
| O=C(N[C@H]1C[C@@H](n2cnc3c(NCc4cccnc4)ncnc32)C1)c1cnccn1 | – | – | < 50% | < 50% | – |

Now from value to compound, other results behind:

| IC50 [1] | IC50 [2] | inhibition [3] | inhibition [4] | SMILES | other results |
| --- | --- | --- | --- | --- | --- |
| – | – | < 50% | < 50% | COc1ccc(C(=O)N[C@H]2C[C@@H](n3cnc4c(NCc5cccnc5)ncnc43)C2)cc1 | – |
| – | – | < 50% | 60% | Cc1cccc(C(=O)N[C@H]2C[C@@H](n3cnc4c(Nc5cccc(Cl)c5)ncnc43)C2)n1 | – |
| 34 nM | 77 nM | – | – | Cc1cccc(C(=O)N[C@H]2C[C@@H](n3cnc4c(NCc5ccc(Cl)c(Cl)c5)ncnc43)C2)n1 | – |
| 2.3 nM | 7.2 nM | – | – | Cc1cccc(C(=O)N[C@H]2C[C@@H](n3cnc4c(NCc5cccc(Cl)c5)ncnc43)C2)n1 | GI [5]: 2.49 µM; IC50 [6]: 23 nM; IC50 [7]: 319 nM; IC50 [8]: > 1000 nM; GI [9]: 2.14 µM; IC50 [10]: > 1000 nM; IC50 [11]: 27 nM |
| 71 nM | 48 nM | – | – | Cc1cccc(C(=O)N[C@H]2C[C@@H](n3cnc4c(NCC5CCNCC5)ncnc43)C2)n1 | – |
| – | – | 57% | 81% | COc1ccc(CNc2ncnc3c2ncn3[C@H]2C[C@@H](NC(=O)c3cccc(C)n3)C2)cc1 | – |
| – | – | 64% | 80% | Cc1cccc(C(=O)N[C@H]2C[C@@H](n3cnc4c(NCc5ccc(Br)cc5)ncnc43)C2)n1 | – |
| – | – | < 50% | 63% | COc1ccc(Nc2ncnc3c2ncn3[C@H]2C[C@@H](NC(=O)c3cccc(C)n3)C2)cc1 | – |
| – | – | < 50% | < 50% | COc1ccccc1CNc1ncnc2c1ncn2[C@H]1C[C@@H](NC(=O)c2cccc(C)n2)C1 | – |
| 10 nM | 16 nM | – | – | Cc1cccc(C(=O)N[C@H]2C[C@@H](n3cnc4c(NCc5cccnc5)ncnc43)C2)n1 | – |
| 4.8 nM | 2.1 nM | – | – | Cc1cccc(C(=O)N[C@H]2C[C@@H](n3cnc4c(NCc5cccc(Br)c5)ncnc43)C2)n1 | GI [5]: 2.43 µM; IC50 [6]: 24 nM; IC50 [7]: 359 nM; IC50 [8]: 611 nM; GI [9]: 2.37 µM; IC50 [10]: > 1000 nM; IC50 [11]: 19 nM |
| 30 nM | 5.4 nM | – | – | Cc1cccc(C(=O)N[C@H]2C[C@@H](n3cnc4c(NCc5ccc(F)cc5)ncnc43)C2)n1 | – |
| 94 nM | 54 nM | – | – | COc1ccc(Nc2ncnc3c2ncn3[C@H]2C[C@@H](NC(=O)c3cccc(C)n3)C2)cc1OC | – |
| – | – | < 50% | < 50% | Cc1cccc(C(=O)N[C@H]2C[C@@H](n3cnc4c(Nc5cccc(F)c5)ncnc43)C2)n1 | – |
| – | – | 49% | 54% | Cc1cccc(C(=O)N[C@H]2C[C@@H](n3cnc4c(NCc5ccccn5)ncnc43)C2)n1 | – |
| – | – | < 50% | < 50% | Cc1cccc(C(=O)N[C@H]2C[C@@H](n3cnc4c(NCc5ccccc5C)ncnc43)C2)n1 | – |
| 25 nM | 49 nM | – | – | Cc1cccc(C(=O)N[C@H]2C[C@@H](n3cnc4c(NCC5CCCCC5)ncnc43)C2)n1 | – |

| IC50 [1] | IC50 [2] | inhibition [3] | inhibition [4] | SMILES | other results |
| --- | --- | --- | --- | --- | --- |
| – | – | < 50% | 53% | Cc1cccc(C(=O)N[C@H]2C[C@@H](n3cnc4c(NCc5ccc(N(C)C)cc5)ncnc43)C2)n1 | – |
| – | – | < 50% | 54% | Cc1cccc(C(=O)N[C@H]2C[C@@H](n3cnc4c(NCc5ccc(OC(F)(F)F)cc5)ncnc43)C2)n1 | – |
| – | – | < 50% | < 50% | Cc1cccc(C(=O)N[C@H]2C[C@@H](n3cnc4c(NCc5ccc(Oc6ccccc6)cc5)ncnc43)C2)n1 | – |
| > 1000 nM | – | – | – | Cc1cccc(C(=O)N[C@H]2C[C@@H](n3cnc4c(NC5CCN(C)CC5)ncnc43)C2)n1 | – |
| – | – | < 50% | < 50% | Cc1cccc(C(=O)N[C@H]2C[C@@H](n3cnc4c(NCc5ccc(C#N)cc5)ncnc43)C2)n1 | – |
| – | – | < 50% | 59% | Cc1cccc(C(=O)N[C@H]2C[C@@H](n3cnc4c(NCc5ccccc5Cl)ncnc43)C2)n1 | – |
| > 1000 nM | – | – | – | Cc1cccc(C(=O)N[C@H]2C[C@@H](n3cnc4c(NC5CCNC5)ncnc43)C2)n1 (some centres undefined) | – |
| 162 nM | 379 nM | – | – | Cc1cccc(C(=O)N[C@H]2C[C@@H](n3cnc4c(NC5CCNCC5)ncnc43)C2)n1 | – |
| 67 nM | 18 nM | – | – | COc1cccc(Nc2ncnc3c2ncn3[C@H]2C[C@@H](NC(=O)c3cccc(C)n3)C2)c1 | – |
| – | – | < 50% | < 50% | Cc1cccc(C(=O)N[C@H]2C[C@@H](n3cnc4c(NCc5ccncc5)ncnc43)C2)n1 | – |
| 13 nM | 29 nM | – | – | Cc1cccc(C(=O)N[C@H]2C[C@@H](n3cnc4c(NCc5ccc(F)c(F)c5)ncnc43)C2)n1 | – |
| 6 nM | 15 nM | – | – | Cc1cccc(C(=O)N[C@H]2C[C@@H](n3cnc4c(NCc5cccc(F)c5)ncnc43)C2)n1 | – |
| – | – | < 50% | 55% | Cc1cccc(C(=O)N[C@H]2C[C@@H](n3cnc4c(NCc5ccccc5F)ncnc43)C2)n1 | – |
| – | – | < 50% | 72% | Cc1cccc(C(=O)N[C@H]2C[C@@H](n3cnc4c(NCc5cccc(C(F)(F)F)c5)ncnc43)C2)n1 | – |
| – | – | < 50% | 58% | Cc1cccc(C(=O)N[C@H]2C[C@@H](n3cnc4c(NCc5ccc(C(F)(F)F)cc5)ncnc43)C2)n1 | – |
| > 1000 nM | > 1000 nM | – | – | Cc1cccc(C(=O)N[C@H]2C[C@@H](n3cnc4c(Nc5ccncc5)ncnc43)C2)n1 | – |
